According to US6361981B1, “Production of ammonium acrylate” (Ciba Specialty Chemicals Water Treatments Limited, priority 1995, dated 2002):

What was measured:
[1] = system: R rhodochrous K22 nitrilase; settings: literature value; read-out: Km for acrylonitrile; cited from earlier work
[2] = system: nitrilase, a preferred enzyme on which initial experiments were conducted (particularly preferred enzyme: Rhodococcus rhodochrous NCIMB 40757); test: Km, Ki of preferred nitrilase in whole cell form (Michaelis-Menten kinetics); type: biochemical
Method: The enzyme must have Km for (meth) acrylonitrile, that is whichever of acrylonitrile and (meth) acrylonitrile is being converted, below 500 μm and Ki for ammonium acrylate or ammonium (meth) acrylate, whichever is being produced, above 100,000 μM. In this specification Km and Ki are measured under conditions in which the enzyme obeys Michaelis-Menten kinetics, in particular at pH 7. A preferred measurement technique uses enzyme in whole cell form in 50 mM sodium phosphate buffer at pH 7 and 30° C. and using concentrations of acrylonitrile from 0.01 to 0.5 mM (for Km) and using 1.2 M ammonium acrylate and 0.079 to 0.554 mM acrylonitrile (for Ki).

[3] = system: nitrilase enzyme discussed in Biotech and Appl Biochem 11, 581 to 601 (1989); settings: literature value; read-out: Km for acrylonitrile; cited from earlier work

SMILES | Km [1] [mM] | Km ([2]; whole cell form, preferred technique: 50 mM sodium phosphate buffer, pH 7, 30° C., acrylonitrile 0.01 to 0.5 mM) [µM] | Km [3] [mM] | ratio Ki/Km ([2]; Ki for ammonium acrylate / Km for acrylonitrile)
C=CC#N [acrylonitrile] | 1.14 | 30.6 | 17 | 
C=CC(=O)O [ammonium acrylate] |  |  |  | greater than 10,000
